The source of these data is patent publication US7498406B2, “Substantially cell membrane impermeable compound and use thereof” (priority 1999, dated 2009).

One test deals with HMEC-1 or HUVE cells. Put plainly: GSAO-B labelling of endothelial cell surface proteins. In kind it is cell-based, human. To be noted: 100 μM, 30 minutes. On the procedure: FIG. 16. Identification of endothelial cell surface proteins that contain closely spaced dithiols). A The surface of HMEC-1 or HUVE cells (2×10^6 cells in 0.4 mL) was labelled with GSAO-B (100 μM) for 30 minutes at room temperature in the absence (lanes 1 and 3) or presence of DMP (400 μM) (lane 2). The endothelial cells were lysed and the lysate from both incubations was resolved on 4-15% SDS-PAGE, transferred to PVDF membrane, and blotted with streptavidin peroxidase to detect the GSAO-B label. The results represent labelling of 3×10^4 HMEC-1 (lanes 1 and 2) of HUVE cells (lane 3). The positions of Mr markers are shown at left. B Densitometry profile of the surface labelled proteins (lanes 1 and 3). The apparent Mr's of the individual proteins are indicated.
Human umbilical vein endothelial cells (HUVEC) (Wall et al., 1978) and the human dermal microvascular endothelial cell line, HMEC-1 (Ades et al., 1992), were harvested and cultured as indicated. Endothelial cells (5×10^6) were detached from culture flasks using 5 mM EDTA in PBS at 37° C., washed 3 times with PBS, resuspended in PBS containing 100 μM of GSAO-B in the absence or presence of 400 μM DMP, and incubated for 30 minutes at room temperature. The cells were washed 3 times with 1 mL of PBS, resuspended in 0.2 mL of ice cold 50 mM Tris/HCl, pH 8 buffer containing 0.5 M NaCl, 1% Triton X-100, 10 μM leupeptin, 2 mM PMSF (Sigma Chemical Company, St, Louis, Mo.), 5 mM EDTA and 10 μM aprotinin (Bayer Australia Ltd., Sydney, NSW), and sonicated on ice. On some occasions the cell lysates were incubated with streptavidin-agarose (Sigma, Castle Hill, NSW) beads (25 μL of packed beads in a total volume of 1 mL) for 60 minutes at 4° C. with rotary mixing. Bound proteins were washed 5 times with 50 mM Tris/HCl, pH 8 buffer containing 0.15 M NaCl and 0.05% Triton X-100, resolved on SDS-PAGE, transferred to PVDF membrane, and the GSAO-B-labeled proteins detected by Western blot.

The subject of test [1] is primary HIV isolates (HN11, HN68 or HN70). In words: Infection of PBMC's by primary HIV isolates, p24 antigen. In kind it is cell-based. To be noted: 10 μM, 7 days. The procedure: PBMC's (1×10^6 per mL) were incubated with GSAA or GSAO (10 μM) for 30 minutes at 37° C. and then with primary HIV isolates (HN11, HN68 or HN70 at 50 TCID50 per 10^6 cells) for 2 hours at 37° C. Cells were washed and incubated in complete medium containing GSAA or GSAO (10 μM) at 5% CO2 and 37° C. for up to 7 days. At the indicated times the conditioned medium was collected and assayed for p24 antigen and cell number and cell viability was determined.
The primary HIV isolates, HN11, HN68 and HN70, were provided by Dr. Hassan Naif, Centre for Virus Research, Westmead Millennium Institute, NSW, Australia. […] The blood was diluted 1:2 with PBS, layered onto Ficoll-Hypaque (35 mL blood onto 15 mL Ficoll-Hypaque) in 50 mL Falcon tubes and centrifuged at 400 g for 20 minutes at 20° C. The PBMC's were collected and pelleted at 1200 rpm for 10 minutes to remove platelets, resuspended at 2×10^6 cells per mL in RPMI containing 20% horse serum (Gibco BRL, Gaithersburg, Md.), 10 μg per mL phytohemagglutinin-M (PHA-M, Boehringer Mannheim Biochemica, Mannheim, Germany) and […] interleukin-2 (Sigma, St. Louis, Mo.) and incubated for 2 days at 5% CO2 and 37° C., PBMC (1×10^6 per mL) were incubated with GSAO or GSAA (10 μM) for 30 minutes at 37° C. in serum-free media. Virus was added at 50 TCID50 per 10^6 cells for 2 hours at 37° C.. […]

Another test has as its system BAE cells. In kind it is cell-based, bovine. To be noted: up to 10 mM concentration (not shown).

Turning to `NC(CCC(=O)NC(CSCC(=O)Nc1ccc([As]=O)cc1)C(=O)NCC(=O)O)C(=O)O` (stereo not drawn) [GSAO, 4-(N-(S-glutathionylacetyl)amino)-phenylarsenoxide], the “proteins on the endothelial cell surface that bind the compound” value in the test with HMEC-1 or HUVE cells is given as “ten distinct proteins”. For the same compound, the “infection of PBMC's by primary HIV isolates” value in test [1] is “blocked infection”. Consider `N[C@@H](CCC(=O)N[C@@H](CSCC(=O)Nc1ccc([As](=O)(O)O)cc1)C(=O)NCC(=O)O)C(=O)O` [GSAA, 4-(N-(S-glutathionylacetyl)amino)phenylarsonic acid, reference compound], for which the “effect on BAE viability” value in the test with BAE cells is recorded as “no significant effect”.
